From patent publication US20230312587A1, “PTERIDINONE COMPOUNDS AND USES THEREOF” (Vertex Pharmaceutical Incorporated, priority 2018, published 2023)
Like-named read-outs stand apart in the source and are kept apart here.

Experiments:
[1] = biological target: HEK293 membranes over-expressing WFS-1 (Homo sapiens (Human), UniProt O76024); assay: Radioligand displacement assay (tritiated Compound 136 probe); format: binding; conditions: displacement of tritiated Compound 136
Method in brief: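 WFS-1-overexpressing HEK293 membranes were preincubated 10 min with compound, then tritiated probe was added for 90 min at room temperature. Bound probe was collected by filtration on PEI-pretreated GF/B filters, washed and scintillation-counted. IC50 came from a 3-parameter fit of bound probe vs compound concentration.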

[2] = system: Hek293 empty vector; assay: In vitro cell viability (CellTiter-Glo), Hek293 empty vector; format: cell-based; conditions: read-out: Hek293 empty vector viability
Experimental: (§1) HEK293 (ATCC, catalog #CRL-1573) cells are plated in 10 cm dishes (Corning, product #430167) into 10 mL of complete DMEM cell culture media [DMEM (Life Technologies, product #11960-051) media supplemented with 10% FBS (Hyclone, catalog #SH30071.03), antimycotic/antibiotic (Life Technologies, product #15240-062), and Glutamax (Life Technologies, product #35050-061)] at 3×10^6 cells per dish. Cells are allowed to attach and grow overnight at 37° C. in humidified 5% CO2. Cells are co-transfected with pVSV-G, pCMV-Gag/Pol and pCLPCX_WFS1 using Fugene 6 (Promega, catalog #E2691) according to manufacturer's protocol. Separately, cells are co-transfected with pVSV-G, pCMV-Gag/Pol and pCLPCX to produce control retrovirus. Cell culture media containing retrovirus (viral supernatant) is collected at 48 and 72 hours following transfection, filtered through a 0.4 uM filter, and stored at −80° C.
(§2) HEK293 cells are plated in 6 well plates (Corning, product #3516) in 2 mL of complete DMEM cell culture media at 1×10^5 cells well and allowed to attach and grow overnight at 37° C. in humidified 5% CO2. The following day, the media is replaced with viral supernatant to which 10 ug/ml of Polybrene® (Santa Cruz Biotech, catalog #sc-134220) is added. Viral supernatant is replaced 24 hours later with complete DMEM media. Transduced cells are selected in complete DMEM cell culture media containing 1 microgram/mL of puromycin (Life Technologies, catalog #A1113803).
(§3) HEK293 cells containing empty pCLPCx vector (HEK293 empty), HEK293 cells stably over-expression WFS1 (HEK293 WFS1), HepG2, and HepG2 cells where WFS1 was depleted via CRISPR/Cas9 (HepG2 WFS1 KO) cells were plated into 96-well black plates (Corning, product #3904) in 100 microliters of complete DMEM cell culture media [DMEM (Life Technologies, product #11960-051) media supplemented with 10% FBS (Hyclone, catalog #SH30071.03), antimycotic/antibiotic (Life Technologies, product #15240-062), and Glutamax (Life Technologies, product #35050-061)] at 1,000 (HEK293) or 5,000 (HepG2) cells per well. Cells were allowed to attach and grow overnight, after which compounds are added at various concentrations. Cell viability was assessed 96 hrs after compound addition with CellTiter-Glo reagent (Promega, catalog #G7570) according to manufacturer's protocol and measurement on a Pherastar luminescence plate reader (BMG Labtech).
(§4) The IC50s for the viability of both the Hek293 empty vector and WFS1 over-expressing cells are summarized in Table 47: A<0.06 μM; 0.06 μM≤B<0.6 μM; 0.6 μM≤C<3.0 μM; D≥3.0 μM.

[3] = system: Hek293 WFS1 over-expressor; assay: In vitro cell viability (CellTiter-Glo), Hek293 WFS1 over-expressor; format: cell-based; conditions: read-out: Hek293 WFS1 viability
Experimental: WFS1 cDNA is amplified from clone RC202901 (Origene Technologies) with primers 5′-TCCGCGGCCCCAAGCTTATCGCCATGGACTCCAACACTGC-3′ (SEQ ID NO: 1), 5′-GATGGGCCCAGATCTCGAGTCAGGCCGCCGACAGGAATG-3′ (SEQ ID NO: 2) and cloned into a retroviral mammalian expression vector pCLPCX using HD Infusion (CLONTECH) at Hind3-Xhol sites using standard procedures. The resulting clone is identified as pCLPCX_WFS1.
as §1, §2, §3, §4

[4] = Homo sapiens, HEK293, Hek293 WFS1 over-expressing cells

Sequence of HEK293 membranes over-expressing WFS-1 (O76024 whole entry): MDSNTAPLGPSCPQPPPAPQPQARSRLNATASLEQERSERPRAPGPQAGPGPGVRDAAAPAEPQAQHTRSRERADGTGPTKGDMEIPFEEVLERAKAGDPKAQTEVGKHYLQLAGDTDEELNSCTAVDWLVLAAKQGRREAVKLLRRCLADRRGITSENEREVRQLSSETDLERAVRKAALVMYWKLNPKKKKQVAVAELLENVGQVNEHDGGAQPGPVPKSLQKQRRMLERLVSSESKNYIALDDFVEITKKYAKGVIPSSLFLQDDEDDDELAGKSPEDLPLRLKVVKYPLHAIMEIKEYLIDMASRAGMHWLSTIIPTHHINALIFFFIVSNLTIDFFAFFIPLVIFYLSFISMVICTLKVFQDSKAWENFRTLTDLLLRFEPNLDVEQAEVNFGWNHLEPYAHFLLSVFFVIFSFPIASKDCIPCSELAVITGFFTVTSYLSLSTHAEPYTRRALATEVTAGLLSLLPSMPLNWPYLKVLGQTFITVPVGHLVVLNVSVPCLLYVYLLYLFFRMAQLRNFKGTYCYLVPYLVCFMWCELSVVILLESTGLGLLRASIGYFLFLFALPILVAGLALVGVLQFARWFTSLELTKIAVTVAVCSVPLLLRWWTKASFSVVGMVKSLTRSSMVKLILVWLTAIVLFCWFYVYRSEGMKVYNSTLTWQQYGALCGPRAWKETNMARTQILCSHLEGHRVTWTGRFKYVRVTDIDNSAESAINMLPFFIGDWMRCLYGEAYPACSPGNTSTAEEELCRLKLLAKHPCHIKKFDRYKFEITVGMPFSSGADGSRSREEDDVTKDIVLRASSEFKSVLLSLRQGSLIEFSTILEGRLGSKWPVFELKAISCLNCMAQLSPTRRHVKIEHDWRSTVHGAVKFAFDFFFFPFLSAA

Row | IC50 [1] [nM] | SMILES | IC50 ([2]; Homo sapiens, HEK293) [nM] | IC50 [3, 4] [nM] | IC50 ([2]; Hek293 empty vector) [nM] | IC50 ([3]; Hek293 WFS1 over-expressing cells) [nM]
1 | 60 to 600 | Cc1nc(NCc2cnn(Cc3ccc(F)cc3)c2)nc2c1N(C)C(=O)[C@H](C)N2C [Compound 1, (7S)-2-(((1-(4-fluorobenzyl)-1H-pyrazol-4-yl)methyl)amino)-4,5,7,8-tetramethyl-7,8-dihydropteridin-6(5H)-one] | ≥ 3000 | < 60 |  | 
2 | 60 to 600 | Cc1nc(NCc2cnn(Cc3ccc(F)cc3)c2)nc2c1NC(=O)[C@H](C)N2C [Compound 4, (7S)-2-(((1-(4-fluorobenzyl)-1H-pyrazol-4-yl)methyl)amino)-4,7,8-trimethyl-7,8-dihydropteridin-6(5H)-one] | ≥ 3000 | < 60 |  | 
3 | 60 to 600 | Cc1nc(NCc2cnn(CCc3ccc(F)cc3)c2)nc2c1NC(=O)[C@H](C)N2C [Compound 6, (7S)-2-(((1-(4-fluorophenethyl)-1H-pyrazol-4-yl)methyl)amino)-4,7,8-trimethyl-7,8-dihydropteridin-6(5H)-one] | ≥ 3000 | 60 to 600 |  | 
4 | 600 to 3000 | Cc1nc(NCc2cnn(CCc3ccc(F)cc3)c2)nc2c1N(C)C(=O)[C@H](C)N2C [Compound 8, (7S)-2-(((1-(4-fluorophenethyl)-1H-pyrazol-4-yl)methyl)amino)-4,5,7,8-tetramethyl-7,8-dihydropteridin-6(5H)-one] | ≥ 3000 | ≥ 3000 |  | 
5 | 60 to 600 | CC[C@H]1C(=O)Nc2cnc(NCc3cnn(Cc4ccc(F)cc4)c3)nc2N1C [Compound 9, (7S)-7-ethyl-2-(((1-(4-fluorobenzyl)-1H-pyrazol-4-yl)methyl)amino)-8-methyl-7,8-dihydropteridin-6(5H)-one] | ≥ 3000 | 60 to 600 |  | 
6 | 60 to 600 | Cc1nc(NCc2cnn(Cc3ccc(F)nc3)c2)nc2c1NC(=O)[C@H](C)N2C [Compound 77] | ≥ 3000 | 60 to 600 |  | 
7 | < 60 | Cc1nc(NCc2cnn(C[C@H](C)c3ccc(F)cc3)c2)nc2c1NC(=O)[C@H](C)N2C [Compound 96, (7S)-2-(((1-((R)-2-(4-fluorophenyl)propyl)-1H-pyrazol-4-yl)methyl)amino)-4,7,8-trimethyl-7,8-dihydropteridin-6(5H)-one] | ≥ 3000 | 60 to 600 |  | 
8 | 60 to 600 | CCOc1ccc(CCn2cc(CNc3ncc4c(n3)N(C)[C@@H](C)C(=O)N4)cn2)cc1 [Compound 121, (7S)-2-(((1-(4-ethoxyphenethyl)-1H-pyrazol-4-yl)methyl)amino)-7,8-dimethyl-7,8-dihydropteridin-6(5H)-one] | ≥ 3000 | 600 to 3000 |  | 
9 | ≥ 3000 | Cc1nc(NCc2cnn(CC(C)(O)c3ccc(F)cc3)c2)nc2c1NC(=O)[C@H](C)N2C (stereo partly drawn) [Compound 128, (7S)-2-(((1-(2-(4-fluorophenyl)-2-hydroxypropyl)-1H-pyrazol-4-yl)methyl)amino)-4,7,8-trimethyl-7,8-dihydropteridin-6(5H)-one] | ≥ 3000 | 600 to 3000 |  | 

The next lines start with the compound.

Row | SMILES | IC50 [1] [nM] | IC50 ([2]; Homo sapiens, HEK293) [nM] | IC50 [3, 4] [nM] | IC50 ([2]; Hek293 empty vector) [nM] | IC50 ([3]; Hek293 WFS1 over-expressing cells) [nM]
10 | Cc1nc(N[C@H]2CC[C@H](n3ccc(C(F)(F)F)n3)C2)nc2c1NC(=O)[C@H](C)N2C (single isomer, unassigned) [Compound 310] | 600 to 3000 | ≥ 3000 | 60 to 600 |  | 
11 | Cc1nc(N[C@@H]2CC[C@@H](n3ccc(C(F)(F)F)n3)C2)nc2c1NC(=O)[C@H](C)N2C (single isomer, unassigned) [Compound 311] | 60 to 600 | ≥ 3000 | < 60 |  | 
12 | Cc1nc(N[C@H]2CC[C@H](Oc3ccc(C(F)(F)F)nc3)C2)nc2c1NC(=O)[C@H](C)N2C (single isomer, unassigned) [Compound 376] | 60 to 600 | ≥ 3000 | 60 to 600 |  | 
13 | Cc1nc(N[C@H]2CC[C@H](Oc3ccc(C(F)(F)F)nc3)C2)nc2c1NC(=O)[C@H](C)N2C (single isomer, unassigned) [Compound 377] | < 60 |  |  | ≥ 3000 | < 60
14 | Cc1nc(NCc2cnn(Cc3ccc(C(F)(F)F)nc3[C@@H](C)O)c2)nc2c1NC(=O)[C@H](C)N2C (single isomer, unassigned) [Compound 420] | 60 to 600 | ≥ 3000 | 60 to 600 |  | 
15 | Cc1nc(NCc2cnn(CC3CCC3)c2)nc2c1N(C)C(=O)[C@H](C)N2C [Compound 7, (7S)-2-(((1-(cyclobutylmethyl)-1H-pyrazol-4-yl)methyl)amino)-4,5,7,8-tetramethyl-7,8-dihydropteridin-6(5H)-one] | 60 to 600 | ≥ 3000 | 60 to 600 |  | 
16 | COc1c(F)cc(Cn2cc(CNc3nc(C)c4c(n3)N(C)[C@@H](C)C(=O)N4)cn2)cc1F [Compound 46, (7S)-2-(((1-(3,5-difluoro-4-methoxybenzyl)-1H-pyrazol-4-yl)methyl)amino)-4,7,8-trimethyl-7,8-dihydropteridin-6(5H)-one] | < 60 | ≥ 3000 | < 60 |  | 
17 | Cc1nc(NCc2cnn(Cc3cccc(C(C)C)c3)c2)nc2c1NC(=O)[C@H](C)N2C [Compound 80, (7S)-2-(((1-(3-isopropylbenzyl)-1H-pyrazol-4-yl)methyl)amino)-4,7,8-trimethyl-7,8-dihydropteridin-6(5H)-one] | < 60 | ≥ 3000 | < 60 |  | 
18 | COc1cc(F)ccc1Cn1cc(CNc2nc(C)c3c(n2)N(C)[C@@H](C)C(=O)N3)cn1 [Compound 83, (7S)-2-(((1-(4-fluoro-2-methoxybenzyl)-1H-pyrazol-4-yl)methyl)amino)-4,7,8-trimethyl-7,8-dihydropteridin-6(5H)-one] | < 60 | ≥ 3000 | < 60 |  | 
19 | Cc1cc(F)ncc1Cn1cc(CNc2nc(C)c3c(n2)N(C)[C@@H](C)C(=O)N3)cn1 [Compound 94, (7S)-2-(((1-((6-fluoro-4-methylpyridin-3-yl)methyl)-1H-pyrazol-4-yl)methyl)amino)-4,7,8-trimethyl-7,8-dihydropteridin-6(5H)-one] | 60 to 600 | ≥ 3000 | < 60 |  | 
20 | Cc1nc(NCc2cnn(CCC3CCOCC3)c2)nc2c1NC(=O)[C@H](C)N2C [Compound 115, (7S)-4,7,8-trimethyl-2-(((1-(2-(tetrahydro-2H-pyran-4-yl)ethyl)-1H-pyrazol-4-yl)methyl)amino)-7,8-dihydropteridin-6(5H)-one] | 600 to 3000 | ≥ 3000 | 600 to 3000 |  | 
21 | Cc1nc(NCc2cnn(Cc3cc(F)c(F)c(F)c3)c2)nc2c1NC(=O)[C@H](C)N2C [Compound 122, (7S)-4,7,8-trimethyl-2-(((1-(3,4,5-trifluorobenzyl)-1H-pyrazol-4-yl)methyl)amino)-7,8-dihydropteridin-6(5H)-one] | < 60 | ≥ 3000 | < 60 |  | 
22 | Cc1nc(NCc2cnn(C3CCN(C(=O)c4ccc(F)cc4)CC3)c2)nc2c1NC(=O)[C@H](C)N2C [Compound 125, (7S)-2-(((1-(1-(4-Fluorobenzoyl)piperidin-4-yl)-1H-pyrazol-4-yl)methyl)amino)-4,7,8-trimethyl-7,8-dihydropteridin-6(5H)-one] | 60 to 600 | ≥ 3000 | 600 to 3000 |  | 
